Source: ChEMBL document CHEMBL4251589, “4-Quinolone derivatives and their activities against Gram positive pathogens” (2018)
≈ marks a conversion by molar mass, not a printed value.

Tests used:
Type in all cases: functional
Staphylococcus aureus [1] = assay: Potency index, ratio of CPFX MIC to compound MIC for Staphylococcus aureus 1199B
Staphylococcus aureus [2] = assay: Potency index, ratio of CPFX MIC to compound MIC for Staphylococcus aureus 1199-3
Staphylococcus aureus [3] = assay: Potency index, ratio of CPFX MIC to compound MIC for Staphylococcus aureus 1199
Staphylococcus aureus [4] = assay: Selectivity ratio of MIC for Staphylococcus aureus 209P JC1 to MIC for methicillin-resistant Staphylococcus aureus
[5] = Selectivity ratio of MIC for Micrococcus luteus ATCC 9341 to MIC for methicillin-resistant Staphylococcus aureus
Staphylococcus aureus [6] = assay: Potency index, ratio of CPFX MIC to compound MIC for Staphylococcus aureus
Staphylococcus aureus [7] = assay: Potency index, ratio of GTFX MIC to compound MIC for Staphylococcus aureus
Staphylococcus aureus [8] = assay: Antibacterial activity against Staphylococcus aureus
Staphylococcus aureus [9] = assay: Potency index, ratio of LMFX MIC to compound MIC for Staphylococcus aureus
Staphylococcus aureus [10] = assay: Potency index, ratio of NRFX MIC to compound MIC for Staphylococcus aureus
Staphylococcus aureus [11] = assay: Antibacterial activity against Staphylococcus aureus 1199-3
Staphylococcus aureus [12] = assay: Antibacterial activity against Staphylococcus aureus 1199
Staphylococcus aureus [13] = assay: Antibacterial activity against Staphylococcus aureus 1199B
Staphylococcus aureus [14] = assay: Antibacterial activity against methicillin-resistant Staphylococcus aureus 494
[15] = system: Staphylococcus epidermidis; assay: Antibacterial activity against Staphylococcus epidermidis after 18 hrs by agar dilution assay
Staphylococcus aureus [16] = assay: Antibacterial activity against Staphylococcus aureus ATCC 6538P after 18 hrs by agar dilution assay
Staphylococcus aureus [17] = assay: Antibacterial activity against vancomycin-resistant Staphylococcus aureus GISA 992
[18] = system: Staphylococcus epidermidis; assay: Potency index, ratio of enoxacin MIC to compound MIC for Staphylococcus epidermidis
Staphylococcus aureus [19] = assay: Potency index, ratio of NRFX MIC to compound MIC for Staphylococcus aureus ATCC 6538P
[20] = system: Staphylococcus epidermidis; assay: Potency index, ratio of CPFX MIC to compound MIC for Staphylococcus epidermidis
Staphylococcus aureus [21] = assay: Potency index, ratio of CPFX MIC to compound MIC for Staphylococcus aureus ATCC 6538P
[22] = system: Staphylococcus epidermidis; assay: Potency index, ratio of NRFX MIC to compound MIC for Staphylococcus epidermidis
Staphylococcus aureus [23] = assay: Potency index, ratio of enoxacin MIC to compound MIC for Staphylococcus aureus ATCC 6538P

Work on `CCn1cc(C(=O)O)c(=O)c2cnc(N3CCN(Cc4ccc(CN5CCN(c6cc7c(cc6F)c(=O)c(C(=O)O)cn7C6CC6)CC5)cc4)CC3)nc21` yielded a Ratio (Staphylococcus aureus [1]) greater than 4, a Ratio (Staphylococcus aureus [2]) greater than 4 and a Ratio (Staphylococcus aureus [3]) greater than 4.

In the case of `C=c1sc2c(C(=O)O)c(=O)c3cc(F)c(-c4ccc(N)cc4)cc3n12`, the Ratio (Staphylococcus aureus [4]) was “>=16” and the Ratio [5] was greater than 16.

With `CCn1cc(C(=O)O)c(=O)c2cc(F)c(N3CCN(CN4C(=O)/C(=N\c5ncc(Cc6cc(OC)c(OC)c(OC)c6)c(N)n5)c5cc(F)ccc54)C(C)C3)c(F)c21` (stereo unspecified) the Ratio (Staphylococcus aureus [6]) was 2 - 4111, the Ratio (Staphylococcus aureus [7]) was 2 - 4111 and the MIC (Staphylococcus aureus [8]; Staphylococcus aureus, read-out: MIC) was 0.0095 µg/mL (≈ 0.0119 µM). The Ratio (Staphylococcus aureus [9]) was 2 - 4111 and the Ratio (Staphylococcus aureus [10]) was 2 - 4111.

In the case of `CCn1cc(C(=O)O)c(=O)c2cc(F)c(N3CCNC(C)C3)c(F)c21` (stereo unspecified) [LOMEFLOXACIN], the MIC (Staphylococcus aureus [8]) was 0.02 to 39.06 µg/mL.

`O=C(O)c1cn(C2CC2)c2cc(N3CCNCC3)c(F)cc2c1=O` [CIPROFLOXACIN] showed an MIC (Staphylococcus aureus [11]) of 0.125 to 32 µg/mL (≈ 0.377 to 96.6 µM), an MIC (Staphylococcus aureus [8]) of 0.02 to 39.06 µg/mL and an MIC (Staphylococcus aureus [12]) of 0.125 to 32 µg/mL (≈ 0.377 to 96.6 µM). It also gave an MIC (Staphylococcus aureus [13]) of 0.125 to 32 µg/mL (≈ 0.377 to 96.6 µM), an MIC (Staphylococcus aureus [14]) of 0.125 to 32 µg/mL (≈ 0.377 to 96.6 µM) and an MIC [15] of 0.25 to 1 µg/mL (≈ 0.754 to 3.02 µM). For the same compound, the MIC (Staphylococcus aureus [16]) was 0.25 to 1 µg/mL (≈ 0.754 to 3.02 µM) and the MIC (Staphylococcus aureus [17]) was 0.125 to 32 µg/mL (≈ 0.377 to 96.6 µM).

`COc1c(N2CCNC(C)C2)c(F)cc2c(=O)c(C(=O)O)cn(C3CC3)c12` (stereo unspecified) [GATIFLOXACIN] showed an MIC (Staphylococcus aureus [8]) of 0.02 to 39.06 µg/mL.

In the case of `Cn1c([N+](=O)[O-])cnc1-c1nnc(N2CCN(c3cc4c(cc3F)c(=O)c(C(=O)O)cn4C3CC3)CC2)s1`, the Ratio [18] was 32 - 128, the Ratio (Staphylococcus aureus [19]) was 32 - 128 and the Ratio [20] was 32 - 128. The MIC [15] was 0.008 µg/mL (≈ 0.0148 µM), the Ratio (Staphylococcus aureus [21]) was 32 - 128 and the MIC (Staphylococcus aureus [16]) was 0.008 µg/mL (≈ 0.0148 µM). The Ratio [22] was 32 - 128 and the Ratio (Staphylococcus aureus [23]) was 32 - 128.

With `CCn1cc(C(=O)O)c(=O)c2cc(F)c(N3CCNCC3)cc21` [NORFLOXACIN] the MIC (Staphylococcus aureus [8]) was 0.02 to 39.06 µg/mL, the MIC [15] was 0.25 to 1 µg/mL (≈ 0.783 to 3.13 µM) and the MIC (Staphylococcus aureus [16]) was 0.25 to 1 µg/mL (≈ 0.783 to 3.13 µM).
